Experimental data from the NIST ThermoML archive (doi:10.1021/je700428f).

Assay: xn = mol fraction of the nth substance listed
Conditions: 101 kPa, Liquid; for viscosity: Capillary tube (Ostwald / Ubbelohde) method

CCCCCCCCC [nonane] + COC(C)(C)C
Conditions | mass density [kg/m3] | viscosity [mPa·s]
308.15 K, x2 = 0 | 706.011 | –
308.15 K, x2 = 0.1085 | 706.97 | –
308.15 K, x2 = 0.1722 | 707.6 | –
308.15 K, x2 = 0.3037 | 709.03 | –
308.15 K, x2 = 0.4011 | 710.36 | –
308.15 K, x2 = 0.5008 | 711.93 | –
308.15 K, x2 = 0.6005 | 713.77 | –
308.15 K, x2 = 0.6992 | 715.84 | –
308.15 K, x2 = 0.6998 | – | 0.386
308.15 K, x2 = 0.7975 | – | 0.357
308.15 K, x2 = 0.8005 | 718.35 | –
308.15 K, x2 = 0.8925 | 721.04 | –
313.15 K, x2 = 0 | 702.076 | 0.555
313.15 K, x2 = 0.1006 | – | 0.529
313.15 K, x2 = 0.1085 | 702.96 | –
313.15 K, x2 = 0.1722 | 703.52 | –
313.15 K, x2 = 0.2026 | – | 0.498
313.15 K, x2 = 0.2995 | – | 0.472
313.15 K, x2 = 0.3037 | 704.82 | –
313.15 K, x2 = 0.4011 | 706.05 | –
313.15 K, x2 = 0.4045 | – | 0.446
313.15 K, x2 = 0.5003 | – | 0.421
313.15 K, x2 = 0.5008 | 707.49 | –
313.15 K, x2 = 0.6005 | 709.18 | –
313.15 K, x2 = 0.6035 | – | 0.391
313.15 K, x2 = 0.6992 | 711.09 | –
313.15 K, x2 = 0.6998 | – | 0.367
313.15 K, x2 = 0.8005 | 713.41 | –
313.15 K, x2 = 0.8925 | 715.91 | –
318.15 K, x2 = 0 | 698.124 | 0.522
318.15 K, x2 = 0.1006 | – | 0.498
318.15 K, x2 = 0.1085 | 698.89 | –
318.15 K, x2 = 0.1722 | 699.42 | –
318.15 K, x2 = 0.2026 | – | 0.471
318.15 K, x2 = 0.2995 | – | 0.446
318.15 K, x2 = 0.3037 | 700.6 | –
318.15 K, x2 = 0.4011 | 701.71 | –
318.15 K, x2 = 0.4045 | – | 0.422
318.15 K, x2 = 0.5003 | – | 0.401
318.15 K, x2 = 0.5008 | 703.01 | –
318.15 K, x2 = 0.6005 | 704.56 | –
318.15 K, x2 = 0.6035 | – | 0.372
318.15 K, x2 = 0.6992 | 706.3 | –
318.15 K, x2 = 0.6998 | – | 0.348
318.15 K, x2 = 0.8005 | 708.45 | –
318.15 K, x2 = 0.8925 | 710.72 | –
323.15 K, x2 = 0 | 694.151 | 0.493
323.15 K, x2 = 0.1006 | – | 0.47
323.15 K, x2 = 0.1085 | 694.83 | –
323.15 K, x2 = 0.1722 | 695.3 | –
323.15 K, x2 = 0.2026 | – | 0.446
323.15 K, x2 = 0.2995 | – | 0.423
323.15 K, x2 = 0.3037 | 696.34 | –
323.15 K, x2 = 0.4011 | 697.34 | –
323.15 K, x2 = 0.4045 | – | 0.402
323.15 K, x2 = 0.5003 | – | 0.382
323.15 K, x2 = 0.5008 | 698.51 | –
323.15 K, x2 = 0.6005 | 699.89 | –
323.15 K, x2 = 0.6035 | – | 0.354
323.15 K, x2 = 0.6992 | 701.46 | –
323.15 K, x2 = 0.8005 | 703.35 | –
323.15 K, x2 = 0.8925 | 705.48 | –
328.15 K, x2 = 0 | 690.165 | 0.466
328.15 K, x2 = 0.1006 | – | 0.445
328.15 K, x2 = 0.1085 | 690.74 | –
328.15 K, x2 = 0.1722 | 691.16 | –
328.15 K, x2 = 0.2026 | – | 0.424
328.15 K, x2 = 0.2995 | – | 0.402
328.15 K, x2 = 0.3037 | 692.06 | –
328.15 K, x2 = 0.4011 | 692.94 | –
328.15 K, x2 = 0.4045 | – | 0.383
328.15 K, x2 = 0.5003 | – | 0.364
328.15 K, x2 = 0.5008 | 693.97 | –
328.15 K, x2 = 0.6005 | 695.19 | –
328.15 K, x2 = 0.6992 | 696.59 | –
328.15 K, x2 = 0.8005 | 698.27 | –
333.15 K, x2 = 0 | 686.154 | 0.442
333.15 K, x2 = 0.1006 | – | 0.423
333.15 K, x2 = 0.1085 | 686.64 | –
333.15 K, x2 = 0.1722 | 686.99 | –
333.15 K, x2 = 0.2026 | – | 0.404
333.15 K, x2 = 0.2995 | – | 0.383
333.15 K, x2 = 0.3037 | 687.76 | –
333.15 K, x2 = 0.4011 | 688.5 | –
333.15 K, x2 = 0.4045 | – | 0.365
333.15 K, x2 = 0.5003 | – | 0.347
333.15 K, x2 = 0.5008 | 689.39 | –
333.15 K, x2 = 0.6005 | 690.45 | –
333.15 K, x2 = 0.6992 | 691.66 | –
333.15 K, x2 = 0.8005 | 693.14 | –
338.15 K, x2 = 0 | 682.116 | 0.42
338.15 K, x2 = 0.1006 | – | 0.402
338.15 K, x2 = 0.1085 | 682.52 | –
338.15 K, x2 = 0.1722 | 682.79 | –
338.15 K, x2 = 0.2026 | – | 0.386
338.15 K, x2 = 0.2995 | – | 0.366
338.15 K, x2 = 0.3037 | 683.42 | –
338.15 K, x2 = 0.4011 | 684.02 | –
338.15 K, x2 = 0.4045 | – | 0.348
338.15 K, x2 = 0.5008 | 684.76 | –
338.15 K, x2 = 0.6005 | 685.66 | –
338.15 K, x2 = 0.6992 | 686.68 | –
338.15 K, x2 = 0.8005 | 687.95 | –
343.15 K, x2 = 0 | 678.06 | 0.399
343.15 K, x2 = 0.1006 | – | 0.383
343.15 K, x2 = 0.1085 | 678.37 | –
343.15 K, x2 = 0.1722 | 678.57 | –
343.15 K, x2 = 0.2026 | – | 0.368
343.15 K, x2 = 0.2995 | – | 0.351
343.15 K, x2 = 0.3037 | 679.05 | –
343.15 K, x2 = 0.4011 | 679.52 | –
343.15 K, x2 = 0.5008 | 680.11 | –
343.15 K, x2 = 0.6005 | 680.83 | –
348.15 K, x2 = 0 | 673.979 | 0.38
348.15 K, x2 = 0.1006 | – | 0.366
348.15 K, x2 = 0.1085 | 674.19 | –
348.15 K, x2 = 0.1722 | 674.31 | –
348.15 K, x2 = 0.2026 | – | 0.352
348.15 K, x2 = 0.3037 | 674.64 | –
348.15 K, x2 = 0.4011 | 674.98 | –
353.15 K, x2 = 0 | 669.872 | 0.362
353.15 K, x2 = 0.1006 | – | 0.35
353.15 K, x2 = 0.1085 | 669.95 | –
353.15 K, x2 = 0.1722 | 670.02 | –
353.15 K, x2 = 0.2026 | – | 0.338
353.15 K, x2 = 0.3037 | 670.19 | –
353.15 K, x2 = 0.4011 | 670.38 | –
358.15 K, x2 = 0 | 665.73 | 0.346
358.15 K, x2 = 0.1006 | – | 0.335
358.15 K, x2 = 0.1085 | 665.71 | –
358.15 K, x2 = 0.1722 | 665.7 | –
358.15 K, x2 = 0.3037 | 665.7 | –
358.15 K, x2 = 0.4011 | 665.75 | –
363.15 K, x2 = 0 | 661.557 | –
363.16 K, x2 = 0.1085 | 661.43 | –
363.16 K, x2 = 0.1722 | 661.33 | –
363.16 K, x2 = 0.3037 | 661.17 | –
